From US9796777B2, “Methods of treating malignant tumors” (Canimguide Therapeutics AB, priority 2007, dated 2017)

Assays:
[1] = system: mAb A; conditions: second trypsination of <30 kD fragments eluted from mAb A at pH 2.7
Experimental: MALDI epitope mapping of mAb A based on antibody protection of proteolysis was repeated. This time a slightly different approach was used. Denatured HSA was incubated with mAb A. Albumin not bound by the antibody, was removed from the sample by size exclusion on an ultra filter. The remaining free mabs and the complexes of mab-albumin was then digested with trypsin (sequences of the albumin molecule to which mab is bound should resist the trypsin digestion). Small cleaved fragments of mab and unprotected albumin was then removed from the sample by ultrafiltration (30 kD). The complexes of mAb and bound albumin fragments were dissociated by lowering the pH to 2.7. Again ultrafiltration at 30 kD was performed to separate whole mAb from albumin fragments smaller than 30 kD.
Denatured HSA (80 μg) was incubated with mAb A (10 μg) in PBS for 18 h at room temperature. […] The retentate was diluted in 25 mM NH4HCO3 and again centrifuged as described above. The retentate was transferred to a sterile eppendorf microcentrifuge tube in 0.4 ml 25 mM NH4HCO3 and 0.4 μg sequencing grade modified trypsin (Promega) was added. Digestion was carried out at 37° C. over night with gentle agitation. Trypsin and free (not antibody-bound) albumin fragments were removed by ultrafiltration on a Amicon Ultra-4 filter (mw cut-off 30 000 Da, Millipore Co.) for 5 min at 3000 rpm. This was repeated three times. The retentate was then transferred to a new ultra filter where the mAb A was disassociated from bound albumin by the addition of 600 μl 0.1 M glycine-HCl, pH 2.7, for 30 min at room temperature after which the ultra filter was centrifuged for 10 min at 3000 rpm. The filtrate was transferred to a sterile Eppendorf microcentrifuge tube and neutralized with Tris-HCl, pH 9. The sample was then immediately dried over night in a SpeedVac vacuum concentrator. The samples were then dissolved in 16 μl of sequencing grade modified trypsin (at 5 μg/ml) (Promega) and incubated at 37° C. for 18 hours. Zip Tip pipette tips (Millipore) containing C18 chromatorgraphy media were used for desalting before the sample was analysed by MALDI TOF ms (see below).
1 μl of each sample of the tryptic digestion was mixed with 1 μl of a saturated solution of α-cyano-4-hydroxycinamic acid ([…]) in 70% acetonitrile/0.3% trifluoro acetic acid. 1 μl of that mixture was spotted on a stainless steel target plate and analysed using MALDI-TOF ms (Voyager-DE PRO, Applied Biosystems, CA, US) equipped with a 337 nm N2 laser. Database searches for masses corresponding to human serum albumin in the resulting spectra were performed in NCBI or SwissProt with MS-Fit as search engine.

[2] = system: cell surface receptors of immune cells (ACS); assay: Adsorption of enzyme fragmented dHSA on affinity column with biotinylated cell surface proteins (ACS), MALDI-TOF ms; type: binding, human
Experimental: Based on the observation that immunoregulatory peptide sequences are present in serum albumin, there is the possibility that other sequences than the epitope of mAb A have immunoregulatory function. Therefore an artificial cell surface (ACS) was prepared as described in materials and methods. […]
To remove unfragmented albumin and enzyme, the sample was ultra filtered through an Amicon Ultra 4 (mw cut-off of 5000) or a Centriplus (mw cut-off 10000) centrifugal filter (Millipore AB, Solna, Sweden). The filtrate, containing fragmented dHSA without enzymes, was collected and diluted with PBS with Ca and Mg (GIBCO).
Buffy coats generated from 450 ml blood each was collected from 4 healthy donors. Erythrocytes were removed by sedimentation on 2% dextran T500 solution (Amersham Pharmacia Biotech AB, Uppsala Sweden) in 0.9% NaCl. Mononuclear cells (PBMC) were then isolated by Ficoll-Paque Plus (GE Healthcare Bioscience AB Sweden) density gradient centrifugation. The PBMC were then suspended in phosphate buffered saline (PBS) containing Ca and Mg (GIBCO) at a concentration of 10×10^6/ml. EZ Link Sulfo-NHS-biotin (Pierce USA) was added at a final concentration of 0.2 mg/ml and the mixture incubated on a shaker at room temperature for 10 min. Excess biotin was then removed by washing the PBMC in PBS. Biotinylated PBMC were then lysed by adding 1.0 ml ice-cold lysing buffer (50 mM Tris-HCL, pH 7.5, with 0.15 M NaCl, 5 mM MgCl2 containing 100 mM Octyl glucoside and 1 mM Phenylmethylsulfonyl fluoride) per 2×10^7 pelleted cells with gentle shaking, then incubated for 30 min. on ice. Debris was removed by centrifugation at 5000×g at 4° C. for 10 min and the supernatants was collected and pooled from all four donors. The lysate was then stored at −70° C. in polypropylene plastic tubes.
This amount of lysate corresponds to 36×10^7 mononuclear cells. It was added to a 1 ml Hitrap Streptavidin HP affinity column (Amersham Biosciences). To block possible remaining free biotin, 5 ml of 0.1 M glycine (Sigma) was added to the column. Unsaturated streptavidin on the column was then reacted with 150 ug biotin (Sigma) in binding buffer. The column was carefully washed with PBS and stored in PBS with 0.1% NaN3 at 4° C. until use.
27 ml biotinylated cell lysate in binding buffer (corresponding to 54×10^7 mononuclear cells) was added to 1.5 ml washed Streptavidin Sepharose HP (Amersham Biosciences). To block possible remaining free biotin, 25 ml of 0.1 M glycine (Sigma) was added to the Streptavidin Sepharose. Unsaturated streptavidin was then reacted with 225 μg biotin (Sigma) in binding buffer. The Streptavidin Sepharose was carefully washed in PBS. One ml of the biotinylated cell lysate coupled Streptavidin Sepharose was then packed in an empty column (Tricorn Empty High Performance Column, Amersham Bioscience) and washed with phosphate buffered saline (PBS) containing Ca and Mg (GIBCO).
The flow-through was collected with consideration taken to void volume and dilution of adsorbed sample by collecting in small portions of 0.2 ml. Thirty ul of each sample, including a control sample that has not been adsorbed, were dried in a Speed-Vac centrifuge.
Dried samples were reconstituted in 10 ul of 0.1% TFA. Zip Tip pipette tips (Millipore, USA) containing C18 reversed-phase media were used for desalting reconstituted samples. […] For the analysis of samples in the mass range 1500-9000 Da, one μl of each Zip Tip eluted sample was mixed with 1 μl of sinapinic acid ([…]). […] Mass identity search of resulting spectra was performed in the SwissProt or NCBI databases using MS-Fit.

[3] = system: PBMC; assay: LPS-induced IL-6 production by PBMC, effect of peptides; type: cell-based, human
Experimental: 100 μl of culture medium consisting of RPMI1640 supplemented with 200 IU/ml penicillin, 200 μg/ml streptomycin, 4 mM L-glutamine (Sigma Chemical, Mo., US) and 20% fresh heat-inactivated autologous serum were added to un-coated or -pre-coated microtiter plates followed by 100 μl of PBMC suspension (5×10^4 lymphocytes) in RPMI/2% HSA with peptides at the indicated concentrations. Lipoplysaccharide (LPS, Sigma Chemical Co, MO, US) was added at a final concentration of 0.05 ng/ml. […] All assay conditions were set up in triplicate wells. Supernatants (SNs) were harvested after 24 hrs and residual cells were removed by centrifugation in a refrigerated centrifuge (Beckman) at 2600×g for 5 minutes. SNs were frozen and stored at −70° C. IL-6 in cell culture SNs was measured by ELISA using the DuoSet® ELISA development kit for human IL-6 (R&D Systems Europe, Ltd., Abingdon, UK) following the manufacturer's recommended procedures. The lower limit of detection was 3.1 pg/ml. Samples were analysed as mean of triplicate wells.

[4] = molecular target: T1, β2-integrin LFA-1 (CD11a) (Homo sapiens, UniProt P20701); assay: Immunocytochemical staining of PBMC and THP-1 with anti-integrin (CD11a) antibody with or without albumin peptides; type: binding; conditions: monocytic cell line THP-1; peptide 40 μg/ml preincubation
T1 construct: endogenous in cells; host or cells: human PBMC (healthy controls, cancer patients) and THP-1 monocytic cell line (ATCC)
T1 sequence (P20701 26-1170): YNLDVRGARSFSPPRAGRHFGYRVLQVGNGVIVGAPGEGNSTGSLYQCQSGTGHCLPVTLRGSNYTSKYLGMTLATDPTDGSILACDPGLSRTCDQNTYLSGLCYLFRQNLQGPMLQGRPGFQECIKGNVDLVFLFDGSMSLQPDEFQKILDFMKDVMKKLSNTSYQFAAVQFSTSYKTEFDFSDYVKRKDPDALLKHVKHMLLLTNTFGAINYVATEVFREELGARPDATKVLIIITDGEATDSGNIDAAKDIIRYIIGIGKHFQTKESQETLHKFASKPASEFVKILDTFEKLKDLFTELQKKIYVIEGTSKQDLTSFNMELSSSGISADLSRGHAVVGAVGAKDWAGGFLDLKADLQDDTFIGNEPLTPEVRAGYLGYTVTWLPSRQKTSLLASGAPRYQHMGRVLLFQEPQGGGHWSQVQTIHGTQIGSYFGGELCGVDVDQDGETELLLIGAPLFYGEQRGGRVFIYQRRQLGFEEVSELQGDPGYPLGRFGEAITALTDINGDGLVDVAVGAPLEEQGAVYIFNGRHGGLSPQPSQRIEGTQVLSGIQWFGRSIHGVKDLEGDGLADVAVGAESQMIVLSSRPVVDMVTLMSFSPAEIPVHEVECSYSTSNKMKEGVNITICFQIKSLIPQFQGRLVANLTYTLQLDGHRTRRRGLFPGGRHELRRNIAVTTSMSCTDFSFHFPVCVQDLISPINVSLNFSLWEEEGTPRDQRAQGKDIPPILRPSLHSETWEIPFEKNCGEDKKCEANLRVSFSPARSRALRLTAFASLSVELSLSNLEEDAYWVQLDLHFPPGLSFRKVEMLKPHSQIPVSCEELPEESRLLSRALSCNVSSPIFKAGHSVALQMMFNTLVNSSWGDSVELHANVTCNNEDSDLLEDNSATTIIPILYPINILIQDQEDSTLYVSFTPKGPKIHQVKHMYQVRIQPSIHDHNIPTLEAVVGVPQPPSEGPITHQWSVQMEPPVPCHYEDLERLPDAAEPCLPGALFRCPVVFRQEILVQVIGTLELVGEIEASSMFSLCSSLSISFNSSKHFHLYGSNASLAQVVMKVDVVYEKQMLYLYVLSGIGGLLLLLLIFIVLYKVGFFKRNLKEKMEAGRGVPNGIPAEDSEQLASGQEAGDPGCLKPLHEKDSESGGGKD
T1 sequence (P05107 23-769 partner): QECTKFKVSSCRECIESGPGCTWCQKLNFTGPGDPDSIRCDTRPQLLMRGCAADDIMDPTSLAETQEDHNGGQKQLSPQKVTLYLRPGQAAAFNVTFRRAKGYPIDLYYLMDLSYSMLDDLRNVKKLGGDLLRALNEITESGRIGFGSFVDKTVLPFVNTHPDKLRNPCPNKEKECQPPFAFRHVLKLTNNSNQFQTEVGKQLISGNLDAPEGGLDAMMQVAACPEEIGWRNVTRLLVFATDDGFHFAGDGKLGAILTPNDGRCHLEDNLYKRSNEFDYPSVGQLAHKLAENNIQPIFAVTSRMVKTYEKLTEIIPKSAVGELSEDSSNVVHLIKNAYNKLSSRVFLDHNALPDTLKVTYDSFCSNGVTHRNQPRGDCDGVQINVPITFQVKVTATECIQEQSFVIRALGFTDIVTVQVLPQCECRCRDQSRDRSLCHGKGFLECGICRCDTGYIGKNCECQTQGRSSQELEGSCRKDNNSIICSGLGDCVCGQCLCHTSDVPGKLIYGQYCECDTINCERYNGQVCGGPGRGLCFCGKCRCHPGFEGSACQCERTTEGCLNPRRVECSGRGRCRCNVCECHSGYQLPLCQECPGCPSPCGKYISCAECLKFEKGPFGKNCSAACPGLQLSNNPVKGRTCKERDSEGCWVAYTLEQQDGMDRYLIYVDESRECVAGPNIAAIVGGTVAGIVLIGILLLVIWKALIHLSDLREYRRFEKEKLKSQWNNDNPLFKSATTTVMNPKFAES
Experimental: Cytospin preparations of mononuclear blood cells from healthy controls, cancer patients and a monocytic cell line, THP-1, were prepared (as described under materials and methods), dried and stored at −70° C. In the immunocytological staining, unspecific staining was blocked by incubation with 10% human AB serum. Some of the slides were preincubated for 60 minutes with albumin peptides at a concentration of 40 μg/ml, added to this 10% AB serum, as indicated in the FIG. 8 A-F. The staining procedure was then continued as described in material and methods. The staining intensity of slides stained with and without preincubation with the peptides was recorded semi quantitatively using a standard light microscope.
PBMC were separated as described above. Cultured THP-1 cells (obtained from the American Type Culture Collection through LGL Nordic AB, Sweden) were carefully washed and suspended in RPMI1640. PBMC and THP-1 were immediately spun down on pre-cleaned microscope slides in a Shandon Cytospin (Shandon Scientific Ltd, UK) at 1000 RPM for 7 min at 2.5 or 5×10^4 cells per slide. The slides were left to dry at room temperature over night, after which they were wrapped in parafilm and stored at −70° C. Immediately before use, the cytospins were thawed and fixed with acetone for 5 min at room temperature. The cytospins were first blocked with 10% normal human AB-serum with and without albumin peptides (40 ␣g/ml) for 1 h before staining. Primary antibody, consisting of a monoclonal mouse anti-human CD11a (clone HI111, BD Biosciences) diluted in Tris buffered saline (TBS, pH 7.6) at 5 μg/ml (THP-1) or 1 µg/ml (PBMC), was added. The slides were incubated for 30 min and then washed in TBS followed by Envision-Alkaline Phosphatase (Dako Norden A/S, Denmark) for 30 min. After additional washing in TBS, the slides were incubated in alkaline phoshatase substrate consisting of Fast Red TR salt (Sigma), naphtol AS-MX (Sigma) and 5 mM levamisol (Sigma) to block endogenous alkaline phosphatase activity, for 20 min followed by washing in TBS. They were then counterstained in Mayer's haematoxylin for 1 minute and mounted in Glycergel (Dako Norden NS). Monoclonal mouse IgG1 against an irrelevant antigen (Aspergillus niger glukosoxidase, Dako Norden NS) was used as a negative control. All incubations were performed at room temperature in a moist chamber.
FIG. 24. Inhibition of the binding of anti-LFA-1, mab HI111, to mononuclear blood cells by 3028 peptide and fragments 3325 and 3218. A standard immunohistochemical staining procedure using acetone fixation, 10% human AB-serum for blocking, incubation with HI 111 and a secondary antibody (Ultravision, an alkaline phosphate conjugated polymer attached to Fab-fragments of goat anti-mouse Ig), followed by development with Fast Red. The slides were then mounted in Glycergel. Preincubation with peptides added to the AB serum was as follows: A. No peptide added, B. peptide 3028, C. The C-terminal part (3218), and D. The N-terminal part (3325).

[5] = system: PBMC; assay: IL-2 induced proliferation of PBMC with albumin peptides in coated and uncoated tissue culture plates; type: cell-based, human; conditions: PBMC from healthy individuals; peptide 5 μg/ml final; 7 days
Experimental: A mixture of 1 mg/ml IgG in a solution of 9 mg/ml HSA in RPMI (HSA/IgG) was also prepared. 200 μl of HSA or HSA/IgG were then added to each well of the plate. The plates were incubated at 4° C. for 30 minutes after which the wells were washed twice with 200 μl of RPMI1640. The coated plates were used immediately. […] PBMC, isolated from healthy individuals, were diluted in RPMI/2% HSA and peptides were added directly to the cell suspension at a concentration of 10 μg/ml.

[6] = Table 5 A, peptides generated by trypsin degradation of dHSA

Substance	Peak area [1]	Per cent adsorbed [2, 6]	further results
CCTESLVNR [500-508, tryptic peptide of dHSA]	119	0.26 Per cent	
DDNPNLPR [tryptic peptide of dHSA]	534	0.01 Per cent	
FQNALLVR [427-434, tryptic peptide of dHSA]	1345	0.41 Per cent	
KLDELRDEGKAS [peptide 2606]			effect on LPS induced IL-6 production ([3]; PBMCs from one healthy control, lowest peptide concentration): inhibitory; effect on binding of the mAb to LFA-1 [4]: clearly enhanced
KVPQVSTPTLVEVSR [compound 3029]		0.64 Per cent	effect on LPS induced IL-6 production ([3]; three cancer patients): essentially no effects; effect on LPS induced IL-6 production ([3]; two healthy controls): slight stimulatory effect in only one of the controls; Per cent adsorbed ([2]; Table 5 B, trypsin peptides selected for synthesis): 0.64 Per cent; effect on IL-2 induced proliferation [5]: no statistically significant activity
LCTVATLR [098-105, tryptic peptide of dHSA]	744	0.35 Per cent	
LDELRDEGK [206-214, tryptic peptide of dHSA]	644	0.02 Per cent	
LSQRFPK	481		
LVNEVTEFAK [066-075, tryptic peptide of dHSA]	1918	-0.02 Per cent	
YLYEIAR [162-168, tryptic peptide of dHSA]	1035	0.34 Per cent	
